# Measured values: patent publication US20190256827A1, “EPIGENOME EDITING SYSTEMS AND METHODS” (STC.UNM, priority 2017, published 2019)
# Legend:
# [1] = system: six off-target genes (RHOC, IRF2BP2, TFAM, HSD3B7, METTL2A, CEP250) in HEK293T cells; assay: qPCR of mRNA levels of six off-target genes with IL1RN sgRNAs; format: cell-based, human; settings: 100 μM ABA for 24 hours vs DMSO
# Protocol: FIG. 11. Expression of six off-target genes when induced by ABA using sgRNAs designed for IL1RN. dCas9-PYL-HA, FLAG-ABI-P300 and IL1RN sgRNAs were transfected into HEK293T cells for 24 hours. Cells were then treated with 100 μM of ABA for another 24 hours followed by the analysis of mRNA levels of six off-target genes using q-PCR. The fold changes were calculated by comparing ABA treated cells to cells treated with DMSO. Error bars represent ±s.e.m. from biological replicates (n=6).
# It is known that sgRNA/Cas9 can bind to unintended loci, which can lead to off-target effects. To examine if aberrant binding interferes with the interpretation of results, all reported sites in the genome that could potentially be targeted by the IL1RN sgRNAs used in the studies were checked. Changes in the mRNA levels of six genes having TSS close to the off-target sites were monitored (Table 3) after cells were co-transfected with IL1RN sgRNAs, dCas9-PYL-HA and FLAG-ABI-P300 plasmids followed by ABA treatment for 24 hours.
# Total RNA was extracted using the EZNA Total RNA Kit I (Omega Bio-tek, Inc., Norcross, Ga.). qPCR reactions were performed on cDNA prepared from 1,000 ng of total cellular RNA using the High-Capacity cDNA Reverse Transcription Kit (Applied Biosystems Co., Thermo Fisher Scientific, Inc., Foster City, Calif.). […] Analyzed data are reported as the mean±s.e.m. for biological replicates. […]
# [2] = system: luciferase reporter gene (fos-Luc) in CHO cells; assay: ABA-induced luciferase expression using integrated CRISPR/CIP (PYL-VP80 / dCas9-NLS-ABI, fos-Luc reporter, sgRNAs); format: cell-based; settings: CHO cells transfected for 24 hours; ABA 100 μM for 16 hours
# From the text: In one exemplary embodiment, ABA-induced ABI-PYL dimerization recruited a transcriptional activator to a DNA sequence targeted by sgRNAs and dCas9, and turn on the expression of a reporter gene. Several DNA plasmids were constructed for this purpose, including: (i) a DNA plasmid (PYL-VP80-ires-dCas9-NLS-ABI) encoding the transcriptional activator VP80 fused to PYL (PYL-VP80) and dCas9 with a nuclear localization signal (NLS) fused to ABI (dCas9-NLS-ABI); (ii) a luciferase reporter gene (fos-Luc) that contains the fos minimal promoter to give minimal background expression; and (iii) several sgRNA expression constructs to target the upstream region (within 1.5 kb) of the luciferase gene. […] Also, specific combinations of multiple sgRNAs increased the induced expression level. In other applications, the fold induction can be improved by optimizing the targeting region of sgRNAs, the combination of different sgRNAs, and/or the framework of fusion proteins, which may lead to a better positioning of the recruited transcription machinery relative to the transcription start site. […] Since histone posttranslational modifications are generally present in an expanded region instead of a specific location (e.g., a transcription start site), the precise positioning may not be as critical for epigenome editing.
# [3] = system: IL1RN mRNA in HEK293T cells; assay: qPCR of IL1RN mRNA levels (dCas9-PYL-HA, FLAG-ABI-P300, sgRNAs); format: cell-based, human
# Protocol: To study how IL1RN expression levels change, total RNAs from the cell lysates generated in the above experiment were purified and then subjected to qPCR analysis to quantify mRNA levels.
# Human embryonic kidney cell HEK293T (American Type Culture Collection, Manassas, Va.) was cultured in Dulbecco's modified Eagle's medium (DMEM) (Gibco) with 10% FBS (Atlanta Biologicals), 1× GlutaMax (Gibco, Thermo Fisher Scientific, Inc., Waltham, Mass.), and 1× penicillin/streptomycin (Pen/Strep; Gibco, Thermo Fisher Scientific, Inc., Waltham, Mass.). Cells (100,000/ml) were plated in 24-well or 10-cm cell culture plate the day before transfection. For each well of 24-well plate transfection, 500 ng of dCas9-PYL-HA, 420 ng of FLAG-ABI-P300, and a total amount of 200-ng mix of gRNAs, with a 50-ng per each gRNA, were mixed with 50×(v/w) Opti-MEM (Gibco, Thermo Fisher Scientific, Inc., Waltham, Mass.), then incubate with the same volume of 3 μg PEI-Opti-MEM solution for 20 minutes at room temperature. Then, 100 μL of PEI-combined plasmids were added to every single well of 24-well plate and cultured for 24 hours before experiments were performed. For a 10 cm plate, 1 mL of PEI-combined plasmids were needed. After six hours transfection, cells were washed and incubated for another 1-72 hours before experiments were performed.
# Total RNA was extracted using the EZNA Total RNA Kit I (Omega Bio-tek, Inc., Norcross, Ga.). qPCR reactions were performed on cDNA prepared from 1,000 ng of total cellular RNA using the High-Capacity cDNA Reverse Transcription Kit (Applied Biosystems Co., Thermo Fisher Scientific, Inc., Foster City, Calif.). TaqMan qPCR probes (Thermo Fisher Scientific, Inc., Waltham, Mass. IL1RN, Hs00893626; GRM2, Hs00968358; HBA, Hs00361191; MYOD1 Hs02330075; GAPDH, Hs99999905) and Fast Advanced Master Mix (Life Technologies Co., Co., Thermo Fisher Scientific, Inc., Carlsbad, Calif.) were used in multiplexed reactions and 384-well format in a 7900HT Fast Real-Time PCR System (Applied Biosystems Co., Thermo Fisher Scientific, Inc., Foster City, Calif.). All measurements were performed at least in triplicate. Data were analyzed using the SDS software, version 2.4 (Applied Biosystems Co., Thermo Fisher Scientific, Inc., Foster City, Calif.), by the ΔΔCt method: the Ct values of target gene were normalized to Ct values of GAPDH, the folds of target gene expression changes were normalized to experimental controls. Analyzed data are reported as the mean±s.e.m. for biological replicates. In ChIP assays, the Ct values of antibodies pulled down segments were normalized to the Ct values of 10% input.
structure (smiles),measurement,setting,value
"CC1=CC(=O)CC(C)(C)[C@@]1(O)/C=C/C(C)=C\C(=O)O [ABA, abscisic acid]",mRNA levels of six off-target genes,[1],None of the six genes display increases in mRNA levels
same,luciferase expression,[2],luciferase expression was induced
same,IL1RN mRNA levels after washing,"[3]; ABA for 12, 24 or 48 hours, then washed",well correlated with the changes in H3K27Ac levels
same,IL1RN mRNA level with P300 mutant (D1399Y) lacking acetyltransferase activity,"[3]; FLAG-ABI-P300 D1399Y, 100 μM ABA for 24 hours",did not increase
same,IL1RN mRNA level,"[3]; cells transfected with ABI-P300, dCas9-PYL and IL1RN sgRNAs, treated with ABA (100 μM, 24 hours)",IL1RN mRNA level increases
same,"IL1RN mRNA when sgRNAs designed for GRM2, HBA or MYOD1 were used","[3]; sgRNAs for GRM2, HBA or MYOD1 in place of IL1RN, 24-hour ABA treatment",no increase in IL1RN mRNA was observed
same,time at which the IL1RN mRNA level increases,[3]; time course after ABA addition,four hours after ABA addition
same,time until which IL1RN mRNA continues to increase rapidly,[3]; time course after ABA addition,about 24 hours
